Source: patent US5696153A, “Therapeutic regimen for treating patients” (priority 1996, dated 1997)

How the values were obtained:
[1] = tested on: ovarian and breast cancers; conditions: background statement; cited from earlier work
SK-N-AS cells [2] = assay: Sensitivity to a second dose of taxol at different times after a first dose (FIG. 1); format: cell-based, human
[3] = cited from earlier work
various cancers = assay: Human tumor responses, Q4D schedule; format: in vivo, human patients
Experimental: From the results obtained from the in vitro and the animal studies, responses of various human subjects to the Q4d×3 (21 days×3) protocol at dosages levels of about 60 mg/m^2 were evaluated. It should be understood that these patients were deemed "salvage" cases almost all of whom had not responded to conventional treatment. All were otherwise thought to be beyond approved therapeutic regimens. Thus, the results and evaluation are anecdotal in nature and are not part of a controlled and statistical valid clinical trial.
Characteristics of the group of twenty were: male (5); female (15); median age 44 (17-81); ECOG-PS 1 (0-3). All were previously treated with chemotherapy and radiation for cancers of the breast (5), ovarian (2), brain (3), prostate (1), head and neck (4), bone (2), leiomyosarcoma (2), and melanoma (1).

[4] = tested on: recurrent or refractory solid tumors of childhood; assay: Study Y: pilot study of children with recurrent or refractory cancer; format: in vivo, human (children)
Experimental: A pilot study of children with recurrent or refractory cancer was initiated under our direction. Ten patients with a variety of recurrent or refractory solid tumors of childhood were treated with the same dosage and schedule as the adults described above.

SK-N-AS cells [5] = assay: Cytopathologic changes after taxol exposure; format: cell-based, human; conditions: 1 μg/ml for 1 hour
Source text: Apoptosis was recognized as acute change in the cells. These included chromatin clumping at the periphery of the nucleus, loss of cytoplasmic detail and finally apoptotic bodies, either readily detached or floating with several being phagocytosed by surrounding cells.

[6] = tested on: SK-N-AS neuroblastoma tumor in nude mice; assay: Studies B and D: antitumor activity, Q4Dx3 vs Q4Hx3; format: in vivo
[7] = Human toxicity, Q4D schedule (Study X); format: in vivo, human patients
Source text: […] It should be understood that these patients were deemed "salvage" cases almost all of whom had not responded to conventional treatment. All were otherwise thought to be beyond approved therapeutic regimens. Thus, the results and evaluation are anecdotal in nature and are not part of a controlled and statistical valid clinical trial.
[…] All were previously treated with chemotherapy and radiation for cancers of the breast (5), ovarian (2), brain (3), prostate (1), head and neck (4), bone (2), leiomyosarcoma (2), and melanoma (1).

Compound: CC(=O)O[C@H]1C(=O)[C@@]2(C)[C@H]([C@H](OC(=O)c3ccccc3)[C@]3(O)C[C@H](OC(=O)[C@H](O)[C@@H](NC(=O)c4ccccc4)c4ccccc4)C(C)=C1C3(C)C)[C@]1(OC(C)=O)CO[C@@H]1C[C@@H]2O [taxol]
- antitumor activity in words [1]: among the most active single agent for ovarian and breast cancers
- time to revertant taxol susceptibility (SK-N-AS cells [2]; after initial exposure, concluded): four
- sensitivity to second dose of taxol (SK-N-AS cells [2]; second dose 24 to 120 hours after first, two experiments): rebounded at the fourth day and continued to the fifth day to the original sensitivity levels
- maximum tolerated dose ([3]; Brown et al, six-hour infusion every twenty-one days, no premedication): 275 mg/m^2
- incidence of hypersensitivity reactions ([3]; Brown et al): dependent upon the schedule over which the taxol was administered
- hypersensitivity reactions ([3]; Kris et al, three hour infusion, 15-200 mg/m^2): severity and unpredictability of hypersensitivity reactions
- antitumor activity in words (various cancers; Q4D schedule, advanced disease patients with varied histologies): has antitumor activity in advanced disease patients with varied histologies
- effectiveness vs Q21 day schedule (various cancers; Q4D, previously untreated patients or in combination/sequence, interpretation): equal to, or more effective than, the Q21 day schedule
- partial response (various cancers; all): four
- partial response (various cancers; brain): 1 instances
- complete response (various cancers; brain tumor): one
- partial response (various cancers; breast): 2 instances
- partial response (various cancers; head and neck): 1 instances
- effectiveness in words (various cancers; salvage patients, limited tests): demonstrated effectiveness
- tumor response on CT scan ([4]; one patient, pelvic embryonal rhabdomyosarcoma): shrinkage of their tumor
- decrease in tumor volume ([4]; one patient, recurrent glioblastoma multiforme, after 9 treatments): 30%
- progression ([4]; rhabdomyosarcoma patient, shortly following the 9th treatment): developed a brain metastasis
- time of abnormal mitosis and polyploidy (SK-N-AS cells [5]): 36 to 72 h
- time of apoptosis (SK-N-AS cells [5]): 6 to 24 h
- cells altered by taxol (SK-N-AS cells [5]; at 24, 48 and 72 hours): Approximately 30%
- antitumor activity, Q4D×3 vs Q4H×3 ([6]; 15 mg/kg IP): greater antitumor activity than the Q4H×3 schedule
- antitumor activity, Q4D vs QD schedule ([6]; mouse, in vivo): better in the Q4D than in the QD schedule
- toxic reaction and side effects vs twenty-four hour infusion ([7]; 45-120 mg/m^2, 60-180 minutes, Q4D×3): less toxic reaction and side effects than equivalent dosage levels over a twenty-four hour infusion
- maximum amount infused without exceeding toxicity limits ([7]; 80 minute interval): 120 mg/m^2
- Alk. Phos. toxicity: A None ([7]; Q4D 60 mg/m^2): 18
- Alk. Phos. toxicity: B Abnormal pre-III, Improved ([7]; Q4D 60 mg/m^2): 3
- Alk. Phos. toxicity: C Abnormal pre-III, Worsened or same ([7]; Q4D 60 mg/m^2): 1
- Alk. Phos. toxicity: D Normal pre-III, Worsened ([7]; Q4D 60 mg/m^2): 1
- Alk. Phos. toxicity: E Grades ([7]; Q4D 60 mg/m^2): 1
- Bilirubin toxicity: A None ([7]; Q4D 60 mg/m^2): 22
- Bilirubin toxicity: B Abnormal pre-III, Improved ([7]; Q4D 60 mg/m^2): 0
- Bilirubin toxicity: C Abnormal pre-III, Worsened or same ([7]; Q4D 60 mg/m^2): 0
- Bilirubin toxicity: D Normal pre-III, Worsened ([7]; Q4D 60 mg/m^2): 1
- Bilirubin toxicity: E Grades ([7]; Q4D 60 mg/m^2): 1
- HB toxicity: A None ([7]; Q4D 60 mg/m^2): 18
- HB toxicity: B Abnormal pre-III, Improved ([7]; Q4D 60 mg/m^2): 1
- HB toxicity: C Abnormal pre-III, Worsened or same ([7]; Q4D 60 mg/m^2): 2
- HB toxicity: D Normal pre-III, Worsened ([7]; Q4D 60 mg/m^2): 2
- HB toxicity: E Grades ([7]; Q4D 60 mg/m^2): 1,4
- PLT. toxicity: A None ([7]; Q4D 60 mg/m^2): 19
- PLT. toxicity: B Abnormal pre-III, Improved ([7]; Q4D 60 mg/m^2): 0
- PLT. toxicity: C Abnormal pre-III, Worsened or same ([7]; Q4D 60 mg/m^2): 3
- PLT. toxicity: D Normal pre-III, Worsened ([7]; Q4D 60 mg/m^2): 1
- PLT. toxicity: E Grades ([7]; Q4D 60 mg/m^2): 3
- SGOT toxicity: A None ([7]; Q4D 60 mg/m^2): 20
- SGOT toxicity: B Abnormal pre-III, Improved ([7]; Q4D 60 mg/m^2): 0
- SGOT toxicity: C Abnormal pre-III, Worsened or same ([7]; Q4D 60 mg/m^2): 0
- SGOT toxicity: D Normal pre-III, Worsened ([7]; Q4D 60 mg/m^2): 3
- WBC toxicity: A None ([7]; Q4D 60 mg/m^2): 15
- WBC toxicity: B Abnormal pre-III, Improved ([7]; Q4D 60 mg/m^2): 0
- WBC toxicity: C Abnormal pre-III, Worsened or same ([7]; Q4D 60 mg/m^2): 2
- WBC toxicity: D Normal pre-III, Worsened ([7]; Q4D 60 mg/m^2): 6
- GGT toxicity: A None ([7]; Q4D 60 mg/m^2, 11 pts): 9
- GGT toxicity: B Abnormal pre-III, Improved ([7]; Q4D 60 mg/m^2, 11 pts): 2
- GGT toxicity: C Abnormal pre-III, Worsened or same ([7]; Q4D 60 mg/m^2, 11 pts): 0
- GGT toxicity: D Normal pre-III, Worsened ([7]; Q4D 60 mg/m^2, 11 pts): 0
- Alb. toxicity: A None ([7]; Q4D 60 mg/m^2, 22 pts): 22
- Alb. toxicity: B Abnormal pre-III, Improved ([7]; Q4D 60 mg/m^2, 22 pts): 0
- Alb. toxicity: C Abnormal pre-III, Worsened or same ([7]; Q4D 60 mg/m^2, 22 pts): 0
- Alb. toxicity: D Normal pre-III, Worsened ([7]; Q4D 60 mg/m^2, 22 pts): 0
- BUN toxicity: A None ([7]; Q4D 60 mg/m^2, 22 pts): 21
- BUN toxicity: B Abnormal pre-III, Improved ([7]; Q4D 60 mg/m^2, 22 pts): 0
- BUN toxicity: C Abnormal pre-III, Worsened or same ([7]; Q4D 60 mg/m^2, 22 pts): 0
- BUN toxicity: D Normal pre-III, Worsened ([7]; Q4D 60 mg/m^2, 22 pts): 0
- Creat toxicity: A None ([7]; Q4D 60 mg/m^2, 22 pts): 21
- Creat toxicity: B Abnormal pre-III, Improved ([7]; Q4D 60 mg/m^2, 22 pts): 0
- Creat toxicity: C Abnormal pre-III, Worsened or same ([7]; Q4D 60 mg/m^2, 22 pts): 0
- Creat toxicity: D Normal pre-III, Worsened ([7]; Q4D 60 mg/m^2, 22 pts): 0
- LDH toxicity: A None ([7]; Q4D 60 mg/m^2, 22 pts): 18
- LDH toxicity: B Abnormal pre-III, Improved ([7]; Q4D 60 mg/m^2, 22 pts): 3
- LDH toxicity: C Abnormal pre-III, Worsened or same ([7]; Q4D 60 mg/m^2, 22 pts): 0
- LDH toxicity: D Normal pre-III, Worsened ([7]; Q4D 60 mg/m^2, 22 pts): 0
- T P toxicity: A None ([7]; Q4D 60 mg/m^2, 22 pts): 21
- T P toxicity: B Abnormal pre-III, Improved ([7]; Q4D 60 mg/m^2, 22 pts): 0
- T P toxicity: C Abnormal pre-III, Worsened or same ([7]; Q4D 60 mg/m^2, 22 pts): 0
- T P toxicity: D Normal pre-III, Worsened ([7]; Q4D 60 mg/m^2, 22 pts): 0
- toxicity or hypersensitivity vs currently recommended dosages ([7]; Q4D regimen, also without pretreatment): reduced toxicity or hypersensitivity reactions
- CMAX taxol-associated toxicity ([7]; Q4D schedule): no clinically significant CMAX taxol-associated toxicity
- abnormalities on UA., CA^++, Phos, CO2, Cl, Na^+, K^+, Mg^+ ([7]; in vivo): No abnormalities detected
- alopecia ([7]; in vivo): 2/4
- diploplia for several hours each day following treatment ([7]; in vivo): One
- malaise and fatigue ([7]; in vivo): Four
- toxicity of infusion with separated treatment days ([7]; treatment days separated by 3-5 days): toxicity of the taxol infusion was diminished
